{"source": "paper PMC8301776", "about": "“New Hybrid Compounds Combining Fragments of Usnic Acid and Monoterpenoids for Effective Tyrosyl-DNA Phosphodiesterase 1 Inhibition” (Biomolecules, 2021)", "key": {"Lewis lung carcinoma": {"system": "Lewis lung carcinoma", "settings": "mice with Lewis lung carcinoma; various administration schedules; cited from earlier work"}, "TDP1": {"target": "T1, TDP1 (Homo sapiens, UniProt Q9NUW8)", "T1 construct": "made in house; host or cells: E. coli", "T1 sequence (Q9NUW8 whole entry)": "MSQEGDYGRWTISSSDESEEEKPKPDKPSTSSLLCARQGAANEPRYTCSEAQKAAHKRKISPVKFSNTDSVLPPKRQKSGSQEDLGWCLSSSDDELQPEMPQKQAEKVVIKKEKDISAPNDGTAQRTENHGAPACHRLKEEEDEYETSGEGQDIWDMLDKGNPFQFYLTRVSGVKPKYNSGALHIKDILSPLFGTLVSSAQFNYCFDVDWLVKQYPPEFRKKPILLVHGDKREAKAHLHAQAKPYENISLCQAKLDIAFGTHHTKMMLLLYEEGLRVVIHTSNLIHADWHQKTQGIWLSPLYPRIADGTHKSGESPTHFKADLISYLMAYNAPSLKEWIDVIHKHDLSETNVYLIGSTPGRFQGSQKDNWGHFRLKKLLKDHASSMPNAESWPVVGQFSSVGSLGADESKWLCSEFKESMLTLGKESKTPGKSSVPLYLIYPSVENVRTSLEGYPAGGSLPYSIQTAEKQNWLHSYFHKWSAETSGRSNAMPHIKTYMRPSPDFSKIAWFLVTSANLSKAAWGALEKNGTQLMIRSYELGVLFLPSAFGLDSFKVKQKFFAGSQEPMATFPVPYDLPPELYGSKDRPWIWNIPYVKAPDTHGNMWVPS", "experiment": "Real-time fluorescence detection of TDP1 activity (FAM/BHQ1 oligonucleotide biosensor)", "format": "biochemical", "settings": "as repeated in Table S1; read-out: IC50"}, "HeLa cells [1]": {"system": "HeLa cells", "experiment": "Intrinsic cytotoxicity, EZ4U colorimetric test, HeLa", "format": "cell-based, human", "settings": "Figure 6", "method": "(§1) Cytotoxicity of the compounds was examined against human cell lines HEK293A (human embryonic kidney)—WT and TDP1-deficient (Tdp1-/-), and HeLa (cervical cancer) using an EZ4U colorimetric tests (Biomedica, Vienna, Austria) or xCELLigence DP Real-Time Cell Analyzer (ACEA Biosciences, Santa Clara, CA, USA). Cell lines were obtained from the Russian Cell Culture Collection (RCCC) Institute of Cytology RAS (St. Petersburg, Russia). The cells were grown in DMEM/F12 medium (Thermo Fisher Scientific, Waltham, MA, USA), with 1× GlutaMAX (Thermo Fisher Scientific, Waltham, MA, USA), 50 IU/mL penicillin, and 50 μg/mL streptomycin (Thermo Fisher Scientific, Waltham, MA, USA), and in the presence of 10% fetal bovine serum (Biolot, Saint-Petersburg, Russia) in 5% CO2 atmosphere. Control cells were grown in the presence of 1% DMSO where indicated. After formation of a 30–50% monolayer, tested compounds were added to the medium, and the cell culture was monitored for 3 days. […] The measurements were carried out in three parallel experiments.\n(§2) The intrinsic cytotoxicity of the four lead compounds (11a–d) was examined using a colorimetric test (Figure 6)."}, "HEK293A cells": {"system": "HEK293A cells", "experiment": "Intrinsic cytotoxicity, EZ4U colorimetric test, HEK293A", "format": "cell-based, human", "settings": "Figure 6", "method": "as §1, §2"}, "HEK293A WT cells [2]": {"system": "HEK293A WT cells", "experiment": "xCELLigence impedance-based real-time cell growth assay, alone or with Tpc", "parameters": "species or system human", "method": "as §1\nThis stimulation was also confirmed for HEK293A WT cells using the xCELLigence DP Real-Time Cell Analyzer impedance-based assay (Figure 9). […] The stimulation effect depends on the concentration of compounds 11a and 11c (Figure 9B,C).\n(A). Cell growth of HEK293A cells in the control wells without compounds added (black), with 50 nM Tpc (red), 40 µM 11a (dark green), or 40 µ M 11c (violet). (B,C) Cell growth of HEK293A cells with 50 nM Tpc only (red) and in combination with 5 µM (green), 10 µM (dark blue), 20 µM (pink), or 40 µM (blue) 11a (B) or 11c (C)."}, "HeLa cells [3]": {"system": "HeLa cells", "experiment": "Topotecan cytotoxicity in combination with TDP1 inhibitors, colorimetric test, HeLa", "format": "cell-based, human", "method": "as §1\nThe combination index (CI) values were determined for different concentrations of Tpc and the enamines 11a–d at 2 and 5 μM. […] The CI values were calculated with the CompuSyn version 1.0 software. The CI plot at different fraction-affected (Fa) was determined for Tpc (0.3, 0.5, 1, 2, and 4 μM) and the Tdp1 inhibitors (2 and 5 μM)."}, "HEK293A WT cells [4]": {"system": "HEK293A WT cells", "experiment": "Topotecan cytotoxicity in combination with TDP1 inhibitors, colorimetric test, HEK293A WT", "format": "cell-based, human", "method": "as §1\nThere was no difference between WT and the mutant cells."}, "HEK293A TDP1-/- cells": {"system": "HEK293A TDP1-/- cells", "experiment": "Topotecan cytotoxicity alone or in combination, colorimetric test, HEK293A TDP1-/- clones C6, G6, F7", "format": "cell-based, human", "from_the_text": "TDP1 knockout HEK293A clones were obtained in the same way as the previously described TDP1 knockout HEK293FT clones. Briefly, two 20-nt protospacer sequences flanking the first protein coding exon of human TDP1 gene were selected using https://www.benchling.com/ (accessed date 1 November 2020). Oligonucleotides were cloned in plasmid pSpCas9(BB)-2A-GFP (PX458). pSpCas9(BB)-2A-GFP (PX458) was a gift from Feng Zhang (Addgene plasmid # 48138; http://n2t.net/addgene:48138; RRID: Addgene_48138). HEK293A cells were transfected with plasmids pX458-TDP1-gRNA1 and pX458-TDP1-gRNA2 (0.25 µg of each) using Lipofectamine 3000 Reagent (Thermofisher Scientific, Waltham, MA, USA). Growth medium contained DMEM/F12 (Thermofisher Scientific, Waltham, MA, USA) 1:1, 10% FBS (Thermofisher Scientific, Waltham, MA, USA), 100 U/mL penicillin–streptomycin (Thermofisher Scientific, Waltham, MA, USA), and 1 × GlutaMAX (Thermofisher Scientific, Waltham, MA, USA). […] Single cell clones grew for two weeks, and genome DNA was analyzed on CRISPR/Cas9-mediated deletions in TDP1 gene by PCR amplification of target region with primers: TDP1-scF 5′-[…]-3′ and TDP1-scR 5′-[…]-3′. […]\nCytotoxicity of the compounds was examined against human cell lines HEK293A (human embryonic kidney)—WT and TDP1-deficient (Tdp1-/-), and HeLa (cervical cancer) using an EZ4U colorimetric tests (Biomedica, Vienna, Austria) or xCELLigence DP Real-Time Cell Analyzer (ACEA Biosciences, Santa Clara, CA, USA). […] After formation of a 30–50% monolayer, tested compounds were added to the medium, and the cell culture was monitored for 3 days. […]\nIn our previous work, the cytotoxic effect of Tpc and the TDP1 inhibitors, monoterpene 3-carene derivatives, was established; both were measured separately and jointly using a panel of HEK293FT TDP1 knockout isogenic clones. […] No cleavage activity was detected in the clones’ C6, G6, and F7 cell extracts in contrast to control WT and purified TDP1. […]"}, "Krebs 2 ascites tumors": {"system": "Krebs 2 ascites tumors", "parameters": "method as in PMID 33871444", "settings": "Krebs 2 ascites tumors in mice; cited from earlier work"}}, "note": "pIC50: −log10 of the molar value. Entries after “also recorded” stand apart in the source; their conditions may differ."}
{"molecule": "CC(=O)c1c(O)c(C)c(O)c2c1OC1=CC(=O)/C(=C(/C)NCCCc3cc(C(C)(C)C)c(O)c(C(C)(C)C)c3)C(=O)[C@@]12C", "note": "[5b]", "values": [{"measurement": "antimetastatic activity", "setting": "Lewis lung carcinoma", "value": "strong antimetastatic activity"}]}
{"molecule": "CC(=O)c1c(O)c(C)c(O)c2c1OC1=CC(=O)/C(=C(/C)NCCC3=CC[C@H]4C[C@@H]3C4(C)C)C(=O)[C@@]12C", "note": "[11c, (2R,4E)-10-Acetyl-4-[1-({2-[(1R,5S)-6,6-dimethylbicyclo[3.1.1]hept-2-en-2-yl]ethyl}amino)ethylidene]-11,13-dihydroxy-2,12-dimethyl-8-oxatricyclo[7.4.0.0^2,7]trideca-1(13),6,9,11-tetraene-3,5-dione]", "values": [{"measurement": "pIC50", "setting": "TDP1", "value": 6.49}, {"measurement": "intrinsic cytotoxicity (in words)", "setting": "HeLa cells [1]", "value": "non-cytotoxic"}, {"measurement": "intrinsic cytotoxicity (in words)", "setting": "HEK293A cells", "value": "non-cytotoxic"}, {"measurement": "effect on cell growth with Tpc, compared to Tpc", "setting": "HEK293A WT cells [2]; 50 nM Tpc + 5, 10, 20 or 40 µM compound", "value": "stimulated cell growth"}, {"measurement": "toxicity of compound alone (in words)", "setting": "HEK293A WT cells [2]; 40 µM compound", "value": "non-toxic"}, {"measurement": "effect on Tpc cytotoxicity (in words)", "setting": "HeLa cells [3]", "value": "enhanced topotecan’s cytotoxicity; also recorded: synergistic effect; also recorded: enhanced Tpc cytotoxicity"}, {"measurement": "effect on Tpc cytotoxicity / cell growth, compared to Tpc (in words)", "setting": "HEK293A WT cells [4]", "value": "reduced it; also recorded: stimulation of cell growth; also recorded: stimulated cell growth"}, {"measurement": "effect on cell growth in combination with Tpc, compared to Tpc (in words)", "setting": "HEK293A TDP1-/- cells; HEK293A Tdp1-/- cells, combination with Tpc", "value": "stimulation of cell growth"}]}
{"molecule": "CC[C@@]1(O)C(=O)OCc2c1cc1n(c2=O)Cc2cc3c(CN(C)C)c(O)ccc3nc2-1", "note": "[Tpc, topotecan, reference compound]", "values": [{"measurement": "sensitivity of TDP1-/- cells to Tpc compared to WT", "setting": "HEK293A TDP1-/- cells; HEK293A clones C6, G6, F7 vs WT, colorimetric test", "value": "more sensitive to Tpc compared to WT"}, {"measurement": "antitumor effect, given separately", "setting": "Krebs 2 ascites tumors", "value": "antitumor effect"}]}
